Assays:
ALK-wt = target: T1, ALK-wt (Homo sapiens, UniProt Q9UM73); assay: Biochemical kinase assay, ALK-wt kinase domain; conditions: apparent inhibitory constant, Morrison equation; ATP 2 mM in substrate solution; read-out: ALK-wt Ki^app
T1 construct: purchased Carna 08-518
Experimental: (§1) First, 250 nL of compound dissolved in DMSO (100-fold of the desired concentration) was dispensed into a 384-well plate. A 12.5 μL substrate solution containing ATP (2 mM) and fluorogenic phosphorylation substrate AQT0101 (26 μM for ALK and ROS1, AssayQuant) or AQT0104 (26 μM for TRKA, AssayQuant) in buffer (50 mM HEPES pH 7.5, 0.01% Brij-35, 0.5 mM EGTA, 10 mM MgCl2) was added and mixed thoroughly. Then, a 12.5 μL kinase solution containing ALK-wt (1.5 nM, Carna, 08-518), ALK ALK L1196M/G1202R (3 nM, SignalChem, A19-12NG), ROS1-wt (0.6 nM, Carna, 08-163), ROS1-G2032R (0.5 nM, SignalChem, R14-12BG), or TRKA-wt (1 nM, BPS Bio, 40280) kinase domains in buffer (50 nM HEPES pH 7.5, 0.01% Brij-35, 2% glycerol, 0.4 mg/mL BSA, 0.5 mM EGTA, and 10 mM MgCl2) was added and mixed thoroughly. The plate was sealed and read by SpectraMax Paradigm at λ=485 nm every 2 minutes for 120 minutes at 30° C. Initial rates of reaction (v) were calculated from the change in fluorescence intensity over time during the initial, linear portion of the reaction. Finally, apparent inhibitory constants (Ki^app) were determined from regression of v and I (inhibitor concentration) to Morrison Equation (E=enzyme concentration): […]

[1] = target: T2, Ba/F3 cells CD74-ROS1 wild-type (wt) (Homo sapiens, UniProt P08922); assay: Ba/F3 cell proliferation assay, CD74-ROS1 wild-type; assay type: cell-based; conditions: 72 hours, CellTiter-Glo
T2 construct: fusion of the C-terminus of ROS1 with the N-terminus of various partner proteins; host or cells: Ba/F3 (RIKEN), retroviral pMSCV-puro; the other entry of the earlier key: CD74 (P04233, HLA class II histocompatibility antigen gamma chain)
T2 sequence (P08922 1883-2347 limits assumed): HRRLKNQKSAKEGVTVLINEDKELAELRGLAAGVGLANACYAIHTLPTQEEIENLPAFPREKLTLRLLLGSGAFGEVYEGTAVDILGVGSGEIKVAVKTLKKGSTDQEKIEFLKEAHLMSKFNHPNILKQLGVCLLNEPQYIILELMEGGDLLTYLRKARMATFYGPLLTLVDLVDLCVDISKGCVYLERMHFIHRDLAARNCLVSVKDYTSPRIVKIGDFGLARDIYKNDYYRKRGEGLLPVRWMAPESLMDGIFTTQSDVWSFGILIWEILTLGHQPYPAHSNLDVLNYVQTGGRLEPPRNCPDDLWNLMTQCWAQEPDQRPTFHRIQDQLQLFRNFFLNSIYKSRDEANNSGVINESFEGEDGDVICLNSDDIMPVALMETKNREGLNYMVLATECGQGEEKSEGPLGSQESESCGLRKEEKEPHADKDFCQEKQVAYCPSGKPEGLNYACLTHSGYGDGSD
Experimental: (§2) The virus was used to infect Ba/F3 cells (RIKEN) at multiplicity of infection=1 for 1 day. Infected cells were rescued in media (RPMI-1640 with 10% fetal bovine serum and 1% streptomycin and penicillin) supplemented with mouse IL-3 (10 ng/mL) for 2 days, and stable cell lines were selected by IL-3 withdrawal and puromycin (0.8 μg/mL) for 7 days. Monoclones were selected by single-cell dilution in IL-3-free medium containing puromycin (0.8 μg/mL).
(§3) Cell Proliferation Assay Stable cells were plated at 1,000 cells/well (40 μL) in a 384-well plate for 1 day.
(§4) Test compounds (40 nL) were then added in a 3-fold dilution series using the TECAN EVO200 liquid handler and incubated for 72 hours. Plates were equilibrated at room temperature for 15 minutes followed by addition of 40 μL CellTiter-Glo reagent (Promega).
(§5) Luminescence was measured on a plate reader. Half-maximal inhibitory concentration (IC50) was calculated from percent inhibition and inhibitor concentration using four-parameter logistic regression. […] (nd=not determined).

[2] = target: T3, Ba/F3 cells EML4-ALK wt (variant 1) (Homo sapiens, UniProt Q9UM73); assay: Ba/F3 cell proliferation assay, EML4-ALK wt (variant 1); assay type: cell-based; conditions: 72 hours, CellTiter-Glo
T3 construct: echinoderm microtubule-associated protein-like 4 (EML4) gene and the ALK tyrosine kinase domain; host or cells: Ba/F3 (RIKEN), retroviral pMSCV-puro; the other entry of the earlier key: EML4 (Q9HC35, Echinoderm microtubule-associated protein-like 4)
T3 sequence (Q9UM73 with tags, fused parts or gaps): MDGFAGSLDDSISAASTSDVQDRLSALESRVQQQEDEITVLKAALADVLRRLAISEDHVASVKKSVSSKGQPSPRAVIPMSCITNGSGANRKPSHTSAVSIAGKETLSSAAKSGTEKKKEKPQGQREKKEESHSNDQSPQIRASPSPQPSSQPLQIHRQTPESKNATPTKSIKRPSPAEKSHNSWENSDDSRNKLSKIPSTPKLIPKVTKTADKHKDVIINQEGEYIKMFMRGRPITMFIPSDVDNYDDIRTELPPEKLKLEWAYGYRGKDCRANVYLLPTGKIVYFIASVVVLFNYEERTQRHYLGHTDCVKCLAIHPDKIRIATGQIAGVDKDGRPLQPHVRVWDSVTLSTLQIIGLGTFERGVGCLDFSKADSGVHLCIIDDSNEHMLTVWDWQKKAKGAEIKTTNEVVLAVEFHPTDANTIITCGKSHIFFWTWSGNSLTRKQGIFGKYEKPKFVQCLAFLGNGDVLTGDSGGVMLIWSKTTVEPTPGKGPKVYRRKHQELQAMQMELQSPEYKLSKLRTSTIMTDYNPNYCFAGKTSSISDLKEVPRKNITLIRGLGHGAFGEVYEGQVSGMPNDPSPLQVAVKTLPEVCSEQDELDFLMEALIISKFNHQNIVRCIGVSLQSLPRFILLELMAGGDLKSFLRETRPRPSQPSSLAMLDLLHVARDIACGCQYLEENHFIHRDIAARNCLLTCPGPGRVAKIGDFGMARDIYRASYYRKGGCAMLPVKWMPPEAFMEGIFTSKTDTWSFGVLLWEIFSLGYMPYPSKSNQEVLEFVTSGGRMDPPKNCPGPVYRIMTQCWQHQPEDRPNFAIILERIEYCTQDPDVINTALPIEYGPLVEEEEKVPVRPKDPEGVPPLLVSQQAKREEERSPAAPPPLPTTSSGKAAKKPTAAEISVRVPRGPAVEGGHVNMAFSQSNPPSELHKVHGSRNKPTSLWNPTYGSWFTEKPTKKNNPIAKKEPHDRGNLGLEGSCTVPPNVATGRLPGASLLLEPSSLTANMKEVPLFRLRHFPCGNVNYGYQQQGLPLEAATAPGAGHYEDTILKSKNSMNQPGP
Source text: (§6) Genes encoding CD74-ROS1 wild-type (wt), CD74-ROS1 G2032R, CD74-ROS1 S1986F, CD74-ROS1 L2026M, CD74-ROS1 D2033N, EML4-ALK wt (variant 1), EML4-ALK G1202R (variant 1), EML4-ALK L1196M/G1202R (variant 1), EML4-ALK G1202R/G1269A (variant 1), EML4-ALK G1202R/L1198F (variant 1), and TPM3-TRKA were synthesized at GeneRay, cloned into the retroviral construct pMSCV-puro (Biovector), and packaged into retroviral particles. The virus was used to infect Ba/F3 cells (RIKEN) at multiplicity of infection=1 for 1 day. Infected cells were rescued in media (RPMI-1640 with 10% fetal bovine serum and 1% streptomycin and penicillin) supplemented with mouse IL-3 (10 ng/mL) for 2 days, and stable cell lines were selected by IL-3 withdrawal and puromycin (0.8 μg/mL) for 7 days. Monoclones were selected by single-cell dilution in IL-3-free medium containing puromycin (0.8 μg/mL). Transformation of desired genes was confirmed by Sanger sequencing and western blot using the following antibodies: ROS1 (CST #3287), ALK (CST #3633), and pan-TRK (Abcam #76291).
as §3, §4, §5

ROS1-G2032R = target: T4, ROS1-G2032R (Homo sapiens, UniProt P08922, G2032R); assay: Biochemical kinase assay, ROS1-G2032R kinase domain; conditions: apparent inhibitory constant, Morrison equation; ATP 2 mM in substrate solution; read-out: ROS1-G2032R Ki^app
T4 construct: purchased SignalChem R14-12BG
T4 sequence (P08922 1945-2222 G2032R limits assumed): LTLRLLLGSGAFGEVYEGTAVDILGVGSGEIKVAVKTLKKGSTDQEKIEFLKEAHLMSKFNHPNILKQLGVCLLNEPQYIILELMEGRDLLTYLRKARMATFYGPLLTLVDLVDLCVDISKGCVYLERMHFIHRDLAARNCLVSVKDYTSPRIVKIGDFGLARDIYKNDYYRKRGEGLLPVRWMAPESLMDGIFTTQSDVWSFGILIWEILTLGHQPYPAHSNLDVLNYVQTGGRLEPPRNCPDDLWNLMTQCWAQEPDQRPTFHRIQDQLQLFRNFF
Experimental: as §1, with “Then, a 12.5 μL kinase solution containing ALK-wt (1.5 nM, Carna, 08-518), ALK ALK L1196M/G1202R (3 nM, SignalChem, A19-12NG), ROS1-wt (0.6 nM, Carna, 08-163), ROS1-G2032R (0.5 nM, SignalChem, R14-12BG), or TRKA-wt (1 nM, BPS Bio, 40280) kinase domains in buffer (50 nM HEPES pH 7.5, 0.01% Brij-35, 2% glycerol, 0.4 mg/mL BSA, 0.5 mM EGTA, and 10 mM MgCl2) was added and mixed thoroughly.” left out

[3] = target: T5, Ba/F3 cells EML4-ALK L1196M/G1202R (variant 1) (Homo sapiens, UniProt Q9UM73, G1202R/L1196M); assay: Ba/F3 cell proliferation assay, EML4-ALK L1196M/G1202R (variant 1); assay type: cell-based; conditions: 72 hours, CellTiter-Glo
T5 construct: echinoderm microtubule-associated protein-like 4 (EML4) gene and the ALK tyrosine kinase domain; host or cells: Ba/F3 (RIKEN), retroviral pMSCV-puro; the other entry of the earlier key: EML4 (Q9HC35, Echinoderm microtubule-associated protein-like 4)
T5 sequence (Q9UM73 with tags, fused parts or gaps L1196M/G1202R): as the sequence (Q9UM73 with tags, fused parts or gaps) above, with L635M, G641R counted along it
Source text: as §6, §3, §4, §5

TRKA-wt = target: T6, TRKA-wt (Homo sapiens, UniProt P04629); assay: Biochemical kinase assay, TRKA-wt kinase domain; conditions: apparent inhibitory constant, Morrison equation; ATP 2 mM in substrate solution; read-out: TRKA-wt Ki^app
T6 construct: or TRKA-wt (1 nM, BPS Bio, 40280) kinase domains in buffer; purchased BPS Bio 40280
T6 sequence (P04629 510-781 limits assumed): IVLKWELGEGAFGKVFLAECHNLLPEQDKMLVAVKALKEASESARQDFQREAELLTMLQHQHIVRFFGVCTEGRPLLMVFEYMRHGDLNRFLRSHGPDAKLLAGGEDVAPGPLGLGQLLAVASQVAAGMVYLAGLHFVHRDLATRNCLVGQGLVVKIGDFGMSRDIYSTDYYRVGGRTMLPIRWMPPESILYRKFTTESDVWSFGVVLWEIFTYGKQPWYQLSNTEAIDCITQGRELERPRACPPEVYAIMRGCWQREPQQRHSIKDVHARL
Experimental: as §1

ALK L1196M/G1202R = target: T7, ALK L1196M/G1202R (Homo sapiens, UniProt Q9UM73, G1202R/L1196M); assay: Biochemical kinase assay, ALK L1196M/G1202R kinase domain; conditions: apparent inhibitory constant, Morrison equation; ATP 2 mM in substrate solution; read-out: ALK-L1196M-G1202R Ki^app
T7 construct: purchased SignalChem A19-12NG
T7 sequence (Q9UM73 1116-1392 L1196M/G1202R limits assumed): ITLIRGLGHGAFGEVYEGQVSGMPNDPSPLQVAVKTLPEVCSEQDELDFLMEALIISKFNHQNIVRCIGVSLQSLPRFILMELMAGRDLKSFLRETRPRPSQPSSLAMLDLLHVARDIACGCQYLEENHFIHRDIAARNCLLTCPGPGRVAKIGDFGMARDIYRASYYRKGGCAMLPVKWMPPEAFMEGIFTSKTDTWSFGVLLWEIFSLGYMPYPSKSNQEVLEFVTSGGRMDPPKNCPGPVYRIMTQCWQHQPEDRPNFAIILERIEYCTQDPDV
Experimental: as §1

Ba/F3 cells TPM3-TRKA = target: T8, Ba/F3 cells TPM3-TRKA (Homo sapiens, UniProt P04629); assay: Ba/F3 cell proliferation assay, TPM3-TRKA; assay type: cell-based; conditions: 72 hours, CellTiter-Glo, read-out: TPM3-NTRK1-wt IC50
T8 construct: host or cells: Ba/F3 (RIKEN), retroviral pMSCV-puro; the other entry of the earlier key: TPM3 (P06753, Tropomyosin alpha-3 chain)
T8 sequence (P04629 510-796 limits assumed): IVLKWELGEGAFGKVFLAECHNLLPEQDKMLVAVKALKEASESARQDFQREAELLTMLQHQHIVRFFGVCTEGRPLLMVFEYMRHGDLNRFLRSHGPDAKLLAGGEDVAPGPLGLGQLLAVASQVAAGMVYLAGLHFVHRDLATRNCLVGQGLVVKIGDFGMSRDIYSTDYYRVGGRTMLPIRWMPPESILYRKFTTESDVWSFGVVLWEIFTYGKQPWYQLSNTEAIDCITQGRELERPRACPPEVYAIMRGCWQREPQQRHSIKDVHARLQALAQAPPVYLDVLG
Source text: as §6, §3, §4, §5

[4] = target: T9, Ba/F3 cells CD74-ROS1 G2032R (Homo sapiens, UniProt P08922, G2032R); assay: Ba/F3 cell proliferation assay, CD74-ROS1 G2032R; assay type: cell-based; conditions: 72 hours, CellTiter-Glo
T9 construct: fusion of the C-terminus of ROS1 with the N-terminus of various partner proteins; host or cells: Ba/F3 (RIKEN), retroviral pMSCV-puro; the other entry of the earlier key: CD74 (P04233, HLA class II histocompatibility antigen gamma chain)
T9 sequence (P08922 1883-2347 G2032R limits assumed): as the sequence (P08922 1883-2347 limits assumed) above, with G150R counted along it
Experimental: as §2, §3, §4, §5

[5] = test system: TPM3-NTRK1-wt IC50 / primary target IC50 (e.g. CD74-ROS1-wt); assay: TRKA selectivity in Ba/F3 cells (TRKA potency divided by primary target potency); assay type: cell-based; conditions: for TPM3-NTRK1-wt/CD74-ROS1-G2032R selectivity ratio: TRKA potency / CD74-ROS1-G2032R potency; for TPM3-NTRK1-wt/EML4-ALK-L1196M-G1202R selectivity ratio: TRKA potency / EML4-ALK-L1196M-G1202R potency
Experimental: TRKA selectivity was calculated by dividing a compound's TRKA potency by its primary target potency (e.g. TPM3-NTRK1-wt IC50/CD74-ROS1-wt IC50). Compound selectivity can be interpreted by binning ratio values: bin A for very high selectivity, ratio >30-fold; bin B for high selectivity, ratio >10-fold; bin C for moderate selectivity, ratio ≥1; and bin D for low selectivity, ratio <1. […] (nd=not determined).

ROS1-wt = target: T10, ROS1-wt (Homo sapiens, UniProt P08922); assay: Biochemical kinase assay, ROS1-wt kinase domain; conditions: apparent inhibitory constant, Morrison equation; ATP 2 mM in substrate solution; read-out: ROS1-wt Ki^app
T10 construct: purchased Carna 08-163
T10 sequence (P08922 1945-2222 limits assumed): as the sequence (P08922 1945-2222 G2032R limits assumed) above, with R88G counted along it
Experimental: as §1, with “Then, a 12.5 μL kinase solution containing ALK-wt (1.5 nM, Carna, 08-518), ALK ALK L1196M/G1202R (3 nM, SignalChem, A19-12NG), ROS1-wt (0.6 nM, Carna, 08-163), ROS1-G2032R (0.5 nM, SignalChem, R14-12BG), or TRKA-wt (1 nM, BPS Bio, 40280) kinase domains in buffer (50 nM HEPES pH 7.5, 0.01% Brij-35, 2% glycerol, 0.4 mg/mL BSA, 0.5 mM EGTA, and 10 mM MgCl2) was added and mixed thoroughly.” left out

T1 sequence (Q9UM73 1116-1392 limits assumed): as the sequence (Q9UM73 1116-1392 L1196M/G1202R limits assumed) above, with M81L, R87G counted along it

Structure (SMILES)	Ki (ALK-wt) [nM]	IC50 [1] [nM]	IC50 [2] [nM]	Ki (ROS1-G2032R) [nM]	IC50 [3] [nM]	Ki (TRKA-wt) [nM]	Ki (ALK L1196M/G1202R) [nM]	IC50 (Ba/F3 cells TPM3-TRKA) [nM]	IC50 [4] [nM]	TPM3-NTRK1-wt/CD74-ROS1-G2032R selectivity ratio [5]	TPM3-NTRK1-wt/CD74-ROS1-wt selectivity ratio ([5]; TRKA potency / CD74-ROS1-wt potency)	TPM3-NTRK1-wt/EML4-ALK-L1196M-G1202R selectivity ratio [5]	TPM3-NTRK1-wt/EML4-ALK-wt selectivity ratio ([5]; TRKA potency / EML4-ALK-wt potency)	Ki (ROS1-wt) [nM]
CCn1ncc2c1-c1cnc(N)c(c1)O[C@H](C)c1cc(F)ccc1-c1cc(OC)nn1C2 [Example 89, (19R)-3-ethyl-16-fluoro-10-methoxy-19-methyl-20-oxa-3,4,8,9,23-pentaazapentacyclo[19.3.1.0^2,^6.0^8,^12.0^13,^18]pentacosa 1(24),2(6),4,9,11,13,15,17,21(25),22-decaen-22-amine]	< 50	0.1 to 50	0.1 to 50	< 50	50 to 500	50 to 500	< 50	50 to 500	0.1 to 50	A (bin A for very high selectivity, ratio >30-fold)	A (bin A for very high selectivity, ratio >30-fold)	D (bin D for low selectivity, ratio <1)	B (bin B for high selectivity, ratio >10-fold)	
Cc1nn(CC2CC2)c2c1Cc1nn(C)nc1-c1ccc(F)cc1[C@@H](CO)Oc1cc-2cnc1N [Example 96, [(19S)-22-amino-3-(cyclopropylmethyl)-16-fluoro-5,10-hexaazapentacyclo[19.3.1.0^2,^6.0^8,^12.0^13,^18]pentacosa-1(24),2(6),4,8,11,13,15,17,21(25),22-decaen-19-yl]methanol]	< 50			< 50	50 to 500	> 500	< 50	> 500				A (bin A for very high selectivity, ratio >30-fold)		< 50
CCn1ncc2c1-c1cnc(N)c(c1)O[C@H](C)c1cc(F)ccc1-c1nccnc1C2 [Example 36, (20R)-3-ethyl-17-fluoro-20-methyl-21-oxa-3,4,9,12,24-pentaazapentacyclo[20.3.1.0^2,^6.0^8,^13.0^14,^19]hexacosa-1(25),2(6),4,8(13),9,11,14,16,18,22(26),23-undecaen-23-amine]	< 50			< 50	0.1 to 50	50 to 500	< 50	50 to 500	0.1 to 50	A (bin A for very high selectivity, ratio >30-fold)		B (bin B for high selectivity, ratio >10-fold)		< 50

Source: patent US12054498B2, “Heteroaromatic macrocyclic ether chemotherapeutic agents” (Nuvalent, Inc., priority 2020, dated 2024)
